In patent US10780094B2, “Use of carbonic anhydrase inhibitors for treatment of neurological and psychiatric disorders” (New York University, priority 2016, dated 2020):

What was measured:
[1] = test system: M059K Glioma cells; assay: Cell Death ELISAplus, Aβ-induced apoptosis (fragmented nucleosomes); type: cell-based, human; settings: for apoptosis in response to Aβ: Example 2, glial cells, FIG. 17C
Protocol: The extent of apoptosis caused by Aβ in the presence or absence of MTZ was assessed by quantitation of nucleosome formation using Cell Death ELISA^plus (Roche Applied Science, Indianapolis, Ind.). Briefly, after incubation with the peptides, plates were centrifuged in a Beckman J-6B centrifuge (10 min; 1,000 rpm), cells lysed, and DNA-histone complexes (nucleosomes) quantitated by Cell Death ELISA, as previously described (Fossati et al., 2010).

[2] = test system: mitochondria isolated from SH-SY5Y neuronal cells; assay: Mitochondrial H2O2 production (Amplex Red) after Aβ challenge; type: cell-based, human; settings: for Aβ-induced H2O2 production: Example 2, both drugs at the proposed concentrations
Protocol: Production of H2O2 from isolated mitochondria was measured using Amplex Red Hydrogen Peroxide/Peroxidase Assay (Life Technologies). Cells were treated with Aβ peptides, in the presence or absence of MTZ. After 16 hours of treatment, the mitochondrial fraction was separated from nuclear and cytoplasmic fractions as previously described (Fossati et al., 2013). Protein concentration in the mitochondrial fraction was measured by BCA assay (Thermo Scientific, Rockford, Ill.), in order to include the same amount of mitochondria in each sample. Functional mitochondrial fractions were distributed in a 96 well plate with Reaction Buffer and Amplex Red solution following the manufacturer's specifications. The plate was incubated in the dark at room temperature for 30 minutes before colorimetric evaluation of the Amplex Red reaction at 560 nm.
Cells were plated on 6-wells plates and treated with the peptides and/or drugs for the experimental times. Plates were centrifuged for 10 min at 1.000 RPM and washed twice with PBS 1×. After that, 500 μL of homogenization buffer (75 mM sucrose, 225 mM mannitol, 5 mM Tris-HCl pH=7.4, 1 mM PMSF and protease inhibitor cocktail) was added. Cells were scraped in this buffer, collected in glass tubes and grinded exactly 80 times with a pellet pestle, keeping everything always on ice. Cells were then centrifuged at 2.800 RPM for 5 min at 4° C. The supernatant was collected and centrifuged again at 2.800 RPM for 5 min at 4° C. The supernatant was again collected and centrifuged at 10.500 RPM for another 5 min at 4° C. After this, the supernatant was discarded and the pellet was re-suspended in 100 μL of homogenization buffer. The samples were centrifuged again at 10.500 RPM for 10 min at 4° C., the supernatant was discarded and the pellets (mitochondrial fractions) were re-suspended on 50 μL of homogenization buffer. A protein concentration assay on mitochondrial protein was performed, using the Pierce BCA Protein Assay Kit (ThermoFisher, Waltham, Mass., US) and following the instructions provided by the manufacturer. After that, mitochondrial fractions containing equal amounts of mitochondrial proteins were placed on 96-wells microplate absorbance microtiter (ThermoFisher, Waltham, Mass., US) and the AmplexRed assay was ran, following the instructions provided by the manufacturer. Absorbance was measured by using a FlexStation (Molecular Devices, Sunnyvalem Calif., US).

[3] = test system: SH-SY5Y and D3 cell cultures; assay: Intracellular pH measurement (pHrodo); type: cell-based, human; settings: MTZ 100 and 300 μM, AZT 30 and 100 μM; 3 and 12 hours; with and without peptide
Protocol: Cells were plated on 96-wells microplate fluorescence microtiter (ThermoFisher, Waltham, Mass., US). The day after, cells were treated with the different drugs and/or peptides. After this, intracellular pH measurement was performed by using the pHrodo red AM kit, following the indications provided by the manufacturer.

[4] = test system: TgSwDI mice; assay: Brain immunostaining and Thioflavin S staining in a model of vascular and parenchymal amyloidosis; type: in vivo, mouse; settings: for Aβ and GFAP staining, dentate gyrus (hippocampus) / GFAP and Aβ staining and their colocalization, cortex / co-localization of Aβ staining with glial cells, dentate gyrus / gliosis and amyloidosis, thalamic region: 16 month-old mice treated for 8 months; for amyloid deposits in the cortex and thalamic region (Thioflavin S) / hippocampal deposition of Amyloid beta (Thioflavin S) / amyloid load in the brain (Thioflavin S): 16 months old, diet 8 months; for amyloid load in the brain (Thioflavin S): 15-20 mg/kg/day
Protocol: The animals were sacrificed by trans-cardiac perfusion (medium flow pump, Fisher Scientific 13-876-2, 10 ml/min flow rate) with PBS for 2 minutes followed by 4% paraphormaldehyde for 5 minutes. Brains were then removed from the skull and postfixed in 4% paraphormaldehyde for 2 h at 4° C. […] Brains were then washed in PBS, assembled in a plastic mold with Tissue-Tek O.C.T. compound (Fisher Scientific), and frozen with a mixture of liquid nitrogen and isopenthanol. Serial cryostat sections of 8 μm thickness were collected on positively charged microscope slides (Fisher Scientific) and stored at −80° C. until further immunohistochemical analysis.
For immunohistochemical staining, slices were warmed to RT for 5′ prior to use, rinsed in PBS and blocked with Mouse on Mouse (MOM) blocking reagent (2 drops in 2.5 ml of PBS, Vector Laboratories, Burlingame, Calif.) for 20 minutes. Incubation with the rabbit monoclonal antibody against active caspase-3 (Cell Signaling Technology) was performed overnight at 4° C. in PBS containing 0.1% triton X-100 and 5 mg/ml BSA. The day after, the sections were washed three times with PBS and incubated in Alexa Fluor 488- or 633-conjugated anti-rabbit IgG (Life Technologies; 1:200 in PBST with 5 mg/ml BSA; 1 h at RT), followed by primary anti-Aβ 6E10 (1:200 in PBS+MOM for 2 hours at RT), and by secondary Alexa Fluor 568 anti-mouse IgG. Finally, the slices were washed and the DNA counterstained with TO-PRO (Life Technologies) 1:1000 for 10 min, or with NeuN green neuronal staining (1:100 in PBS for 1 hour, Millipore, Temecula, Calif.). For staining of active microglial cells, tissue sections were incubated with anti IBA1 goat antibody (Abcam, Cambridge, Mass.) 1:200 in PBS containing 0.1% Triton and 5 mg/ml BSA for 1 hour, followed by Alexa Fluor 488 anti-goat IgG (1 hour). For astrocytes, brain slices were stained with GFAP antibody (Fisher Scientific 1:200).
Total fibrillar Aβ burden (parenchymal and vascular) and CAA burden (Aβ burden in the vasculature) were evaluated separately in sections stained with Thioflavin-S, using methods described previously (Scholtzova et al., J Neurosci 2009, 29: 1846-1854).
After washing, slides were mounted with an aqueous mounting medium (Vector Laboratories). Images were acquired in a Zeiss LSM 510 confocal microscope using 40× or 100× oil lens and processed using Image J and Adobe Photoshop. Images were acquired maintaining constant exposure for all samples across single experiments. For quantifications, stained brain slices corresponding to the injection site area of 3 or more animals were quantified with Image J. The total area of NeuN, caspase 3, Aβ and IBA1 positive cells was quantified and compared between different treatments.

[5] = drugs in diet from 5-6 months of age, sacrificed at 9 months

CC(=O)Nc1nnc(S(N)(=O)=O)s1 [ATZ, acetazolamide]
apoptosis in response to Aβ [1]: prevented
Aβ-induced H2O2 production [2]: completely reverted
intracellular pH values [3]: did not show any significant changes
Aβ and GFAP staining, dentate gyrus (hippocampus) [4]: both Aβ and GFAP were reduced
GFAP and Aβ staining and their colocalization, cortex [4]: significant reduction
co-localization of Aβ staining with glial cells, dentate gyrus [4]: not co-localized within glial cells
gliosis and amyloidosis, thalamic region [4]: decreased gliosis (green) and amyloidosis (red)
amyloid deposits in the cortex and thalamic region (Thioflavin S) [4]: reduced deposition
hippocampal deposition of Amyloid beta (Thioflavin S) [4]: decrease
amyloid load in the brain (Thioflavin S) [4]: reduced
increase in caspase 3 activation induced by Aβ, hippocampus [4, 5]: inhibited

CC(=O)/N=c1/sc(S(N)(=O)=O)nn1C [MTZ, methazolamide]
apoptotic phenotype caused by the Aβ peptides ([1]; 100 μM MTZ, Aβ42 10 μM or Aβ40-Q22 50 μM, 3 days): completely reverted the apoptotic phenotype
Aβ-mediated increase in fragmented nucleosomes ([1]; 300 μM MTZ, Aβ42 10 μM or Aβ40-Q22 50 μM, 3 days): completely prevented
apoptosis in response to Aβ [1]: prevented
Aβ-induced increase in H2O2 production by isolated mitochondria ([2]; Example 1, Aβ with MTZ): completely reverted
Aβ-induced H2O2 production [2]: completely reverted
H2O2 production, drug alone ([2]; MTZ alone, untreated cells): did not have any effect
intracellular pH values [3]: did not show any significant changes
Aβ and GFAP staining, dentate gyrus (hippocampus) [4]: both Aβ and GFAP were reduced
GFAP and Aβ staining and their colocalization, cortex [4]: significant reduction
co-localization of Aβ staining with glial cells, dentate gyrus [4]: not co-localized within glial cells
gliosis and amyloidosis, thalamic region [4]: decreased gliosis (green) and amyloidosis (red)
amyloid deposits in the cortex and thalamic region (Thioflavin S) [4]: reduced deposition
hippocampal deposition of Amyloid beta (Thioflavin S) [4]: decrease
amyloid load in the brain (Thioflavin S) [4]: reduced
Aβ deposition, hippocampus [4, 5]: reduction in Aβ deposition
increase in caspase 3 activation induced by Aβ, hippocampus [4, 5]: inhibited
